Reference: patent publication US10294202B2, “Pyrrolidinones as herbicides” (FMC Corporation, priority 2013, dated 2019)

Legend:
Assay in all cases: Test D pre-/postemergence herbicide test
radish, wild = type: in vivo, Raphanus raphanistrum; conditions: for Plant response rating: Postemergence, Radish, Wild, scale 0 to 100; for Plant response rating, Radish, Wild: Preemergence, scale 0 to 100 (0 no effect, 100 complete control)
Text: (§1) Seeds of plant species selected from bluegrass (annual bluegrass, Poa annua), blackgrass (Alopecurus myosuroides), canarygrass (littleseed canarygrass, Phalaris minor), chickweed (common chickweed, Stellaria media), galium (catchweed bedstraw, Galium aparine), bromegrass, downy (downy bromegrass, Bromus tectorum), field poppy (Papaver rhoeas), field violet (Viola arvensis), foxtail, green (green foxtail, Setaria viridis), deadnettle (henbit deadnettle, Lamium amplexicaule), ryegrass, Italian (Italian ryegrass, Lolium multiflorum), kochia (Kochia scoparia), lambsquarters (Chenopodium album), oilseed rape (Brassica napus), pigweed (Amaranthus retroflexus), chamomile (scentless chamomile, Matricaria inodora), Russian thistle (Salsola kali), speedwell (bird's-eye speedwell, Veronica persica), barley, spring (spring barley, Hordeum vulgare), wheat, spring (spring wheat, Triticum aestivum), buckwheat, wild (wild buckwheat, Polygonum convolvulus), mustard, wild (wild mustard, Sinapis arvensis), oat, wild (wild oat, Avena fatua), radish, wild (wild radish, Raphanus raphanistrum), […]), barley, winter (winter barley, Hordeum vulgare), and wheat, winter (winter wheat, Triticum aestivum) were planted into a silt loam soil and treated preemergence with test chemicals formulated in a non-phytotoxic solvent mixture which included a surfactant. At the same time, these species were planted in pots containing Redi-Earth® planting medium (Scotts Company, 14111 Scottslawn Road, Marysville, Ohio 43041) comprising spaghnum peat moss, vermiculite, wetting agent and starter nutrients and treated with postemergence applications of the test chemicals formulated in the same manner. Plants ranged in height from 2 to 18 cm (1- to 4-leaf stage). Treated plants and controls were maintained in a controlled growth environment for 7 to 21 days after which time all species were compared to controls and visually evaluated. Plant response ratings, summarized in Table D, are based on a scale of 0 to 100 where 0 is no effect and 100 is complete control. A dash (-) response means no test result.

kochia = type: in vivo, Kochia scoparia; conditions: for Plant response rating: Kochia, scale 0 to 100; for Plant response rating, Kochia: scale 0 to 100 (0 no effect, 100 complete control)
Text: as §1

speedwell = type: in vivo, Veronica persica; conditions: for Plant response rating: Postemergence, Speedwell, scale 0 to 100; for Plant response rating, Speedwell: Preemergence, scale 0 to 100 (0 no effect, 100 complete control)
Text: as §1

chickweed = type: in vivo, Stellaria media; conditions: for Plant response rating: Chickweed, scale 0 to 100; for Plant response rating, Chickweed: scale 0 to 100 (0 no effect, 100 complete control)
Text: as §1

## O=C1NCC(c2ccc(F)c(F)c2)C1C(=O)Nc1ccccc1C(F)(F)F (racemic) [Compound 6]
radish, wild; 16 g ai/ha
  Plant response rating: 0
  Plant response rating, Radish, Wild: 0
radish, wild; 31 g ai/ha
  Plant response rating: 0
radish, wild; 62 g ai/ha
  Plant response rating: 0
radish, wild; 125 g ai/ha
  Plant response rating: 0
radish, wild; 250 g ai/ha
  Plant response rating: 10
kochia; Postemergence, 16 g ai/ha
  Plant response rating: 0
kochia; Postemergence, 31 g ai/ha
  Plant response rating: 5
kochia; Postemergence, 62 g ai/ha
  Plant response rating: 5
kochia; Postemergence, 125 g ai/ha
  Plant response rating: 5
kochia; Postemergence, 250 g ai/ha
  Plant response rating: 10
kochia; Preemergence, 62 g ai/ha
  Plant response rating, Kochia: 30
kochia; Preemergence, 16 g ai/ha
  Plant response rating, Kochia: 0
kochia; Preemergence, 31 g ai/ha
  Plant response rating, Kochia: 0
kochia; Preemergence, 125 g ai/ha
  Plant response rating: 40
kochia; Preemergence, 250 g ai/ha
  Plant response rating: 50
speedwell; 16 g ai/ha
  Plant response rating: 0
  Plant response rating, Speedwell: 0
speedwell; 31 g ai/ha
  Plant response rating: 0
  Plant response rating, Speedwell: 10
speedwell; 62 g ai/ha
  Plant response rating: 0
  Plant response rating, Speedwell: 10
speedwell; 125 g ai/ha
  Plant response rating: 0
  Plant response rating, Speedwell: 30
speedwell; 250 g ai/ha
  Plant response rating: 15
  Plant response rating, Speedwell: 50
chickweed; Postemergence, 16 g ai/ha
  Plant response rating: 0
chickweed; Postemergence, 31 g ai/ha
  Plant response rating: 0
chickweed; Postemergence, 62 g ai/ha
  Plant response rating: 0
chickweed; Postemergence, 125 g ai/ha
  Plant response rating: 10
chickweed; Postemergence, 250 g ai/ha
  Plant response rating: 30

## O=C1NCC(c2ccc(F)c(C(F)(F)F)c2)C1C(=O)Nc1cccc(F)c1F (racemic) [Compound 77]
radish, wild; 62 g ai/ha
  Plant response rating, Radish, Wild: 10
radish, wild; 125 g ai/ha
  Plant response rating, Radish, Wild: 25
radish, wild; 31 g ai/ha
  Plant response rating, Radish, Wild: 0
radish, wild; 250 g ai/ha
  Plant response rating, Radish, Wild: 30
kochia; Preemergence, 62 g ai/ha
  Plant response rating, Kochia: 75
kochia; Preemergence, 31 g ai/ha
  Plant response rating, Kochia: 35
kochia; Preemergence, 125 g ai/ha
  Plant response rating: 80
kochia; Preemergence, 250 g ai/ha
  Plant response rating: 85
speedwell; 62 g ai/ha
  Plant response rating, Speedwell: 25
speedwell; 125 g ai/ha
  Plant response rating, Speedwell: 35
speedwell; 31 g ai/ha
  Plant response rating, Speedwell: 20
speedwell; 250 g ai/ha
  Plant response rating, Speedwell: 100
chickweed; Preemergence, 62 g ai/ha
  Plant response rating, Chickweed: 90
chickweed; Preemergence, 31 g ai/ha
  Plant response rating, Chickweed: 75
chickweed; Preemergence, 125 g ai/ha
  Plant response rating: 100
chickweed; Preemergence, 250 g ai/ha
  Plant response rating: 100

## O=C1NCC(c2ccc(C(F)(F)F)cc2)C1C(=O)Nc1cccc(F)c1F (racemic) [Compound 202]
radish, wild; 31 g ai/ha
  Plant response rating: 50
  Plant response rating, Radish, Wild: 0
radish, wild; 62 g ai/ha
  Plant response rating: 70
  Plant response rating, Radish, Wild: 0
radish, wild; 125 g ai/ha
  Plant response rating: 75
  Plant response rating, Radish, Wild: 0
radish, wild; 250 g ai/ha
  Plant response rating: 70
  Plant response rating, Radish, Wild: 80
kochia; Postemergence, 31 g ai/ha
  Plant response rating: 70
kochia; Postemergence, 62 g ai/ha
  Plant response rating: 70
kochia; Postemergence, 125 g ai/ha
  Plant response rating: 75
kochia; Postemergence, 250 g ai/ha
  Plant response rating: 75
kochia; Preemergence, 62 g ai/ha
  Plant response rating, Kochia: 85
kochia; Preemergence, 31 g ai/ha
  Plant response rating, Kochia: 85
kochia; Preemergence, 125 g ai/ha
  Plant response rating: 85
kochia; Preemergence, 250 g ai/ha
  Plant response rating: 85
speedwell; 31 g ai/ha
  Plant response rating: 60
  Plant response rating, Speedwell: 90
speedwell; 62 g ai/ha
  Plant response rating: 75
  Plant response rating, Speedwell: 90
speedwell; 125 g ai/ha
  Plant response rating: 85
  Plant response rating, Speedwell: 90
speedwell; 250 g ai/ha
  Plant response rating: 90
  Plant response rating, Speedwell: 100
chickweed; Postemergence, 31 g ai/ha
  Plant response rating: 75
chickweed; Postemergence, 62 g ai/ha
  Plant response rating: 75
chickweed; Postemergence, 125 g ai/ha
  Plant response rating: 80
chickweed; Postemergence, 250 g ai/ha
  Plant response rating: 80
chickweed; Preemergence, 62 g ai/ha
  Plant response rating, Chickweed: 80
chickweed; Preemergence, 31 g ai/ha
  Plant response rating, Chickweed: 45
chickweed; Preemergence, 125 g ai/ha
  Plant response rating: 90
chickweed; Preemergence, 250 g ai/ha
  Plant response rating: 95
